Measured values: US20140288074A1, “FUNGICIDAL PYRAZOLES” (E I DU PONT DE NEMOURS AND COMPANY, priority 2013, published 2014)

Columns and labels:
[1] = tested on: Septoria tritici; experiment: Test D: preventive spray on wheat seedlings, wheat leaf blotch, visual disease rating; assay type: in vivo; conditions: for Test D rating (disease control) / pest or weed control at 200 ppm: 200 ppm test suspension, Septoria tritici inoculated the day after spraying
Outline: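 Wheat seedlings sprayed to run-off with 200 ppm suspension (≈800 g/ha; asterisked ratings 40 ppm), then inoculated with S. tritici spores next day. Held 48 h saturated at 24 °C, then 19 days at 20 °C. Visual rating 0–100% disease control versus controls, triplicate mean.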

[2] = tested on: Puccinia recondita f. sp. tritici; experiment: Test F: preventive spray on wheat seedlings, wheat leaf rust, visual disease rating; assay type: in vivo; conditions: for Test F rating (disease control) / pest or weed control at 200 ppm: 200 ppm test suspension, Puccinia recondita f. sp. tritici inoculated the day after spraying
Outline: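 Compounds in acetone/water (50/50) with 250 ppm Trem 014, sprayed to run-off on seedlings at 200 ppm (800 g/ha) or 40 ppm where marked. Inoculated next day, 24 h saturated atmosphere at 20° C then 6 days at 20° C; visual rating, 100 = full control vs controls, triplicate averaged.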

SMILES	Test D rating (disease control) [1] [%]	Test F rating (disease control) [2] [%]	pest or weed control at 200 ppm ([1]; Zymoseptoria tritici, 504 h) [%]	pest or weed control at 200 ppm ([2]; 168 h) [%]	further results
CCCNc1c(-c2ccc(Cl)cc2Cl)c(C)nn1C [Compound 3]	92	0			
Cc1nn(C)c(C(O)C2=CCCCC2)c1-c1c(F)cccc1F (centres unmarked) [Compound 10]	92	86			
CCCC(O)c1c(-c2c(F)cccc2F)c(C)nn1C (centres unmarked) [Compound 14]	62	74			
C=CCC(C)(C)C(O)c1c(-c2c(F)cccc2F)c(C)nn1C (centres unmarked) [Compound 12]	83	41			
Cc1nn(C)c(C(O)CC(C)C)c1-c1c(F)cccc1F (centres unmarked) [Compound 11]	98	89			
Cc1nn(C)c(NC2CCCCC2)c1-c1ccc(F)cc1F [Compound 6, N-cyclohexyl-4-(2,4-difluorophenyl)-1,3-dimethyl-1H-pyrazol-5-amine]			100	17	
Cc1nn(C)c(NCC(C)C)c1-c1ccc(Cl)cc1Cl [Compound 4, 4-(2,4-dichlorophenyl)-1,3-dimethyl-N-(2-methylpropyl)-1H-pyrazol-5-amine]			99	0	
CCC(C)C(O)c1c(-c2c(F)cccc2Cl)c(C)nn1C (stereo not drawn) [Compound 19, 4-(2-chloro-6-fluorophenyl)-1,3-dimethyl-α-(1-methylpropyl)-1H-pyrazole-5-methanol]					pest or weed control at 40 ppm ([1]; Zymoseptoria tritici, 504 h, 40 ppm test suspension (asterisk), Septoria tritici): 89%; pest or weed control at 40 ppm ([2]; 168 h, 40 ppm test suspension (asterisk), Puccinia recondita f. sp. tritici, preventive): 19%
Cc1nn(C)c(C(O)C(C)(C)CCC#N)c1-c1c(F)cccc1F (centres unmarked) [Compound 9]	98	9			
CCCCNc1c(-c2ccc(Cl)cc2Cl)c(C)nn1C [Compound 5, N-butyl-4-(2,4-dichlorophenyl)-1,3-dimethyl-1H-pyrazol-5-amine]			88	27	
Cc1nn(C)c(C(O)C(C)C)c1-c1ccc(F)cc1Cl (stereo not drawn) [Compound 2, 4-(2-chloro-4-fluorophenyl)-1,3-dimethyl-α-(1-methylethyl)-1H-pyrazole-5-methanol]			100	99	
Cc1nn(C)c(C(O)CC(C)C)c1-c1c(F)cccc1Cl (centres unmarked) [Compound 20]	100	86			
CCCCC(CC)C(O)c1c(-c2c(F)cccc2F)c(C)nn1C (centres unmarked) [Compound 13]	55	28			
CCCC(O)c1c(-c2c(F)cccc2Cl)c(C)nn1C (centres unmarked) [Compound 21]	97	74			
CCC(C)C(O)c1c(-c2ccc(F)cc2Cl)c(C)nn1C (stereo not drawn) [Compound 8, 4-(2-chloro-4-fluorophenyl)-1,3-dimethyl-α-(1-methylpropyl)-1H-pyrazole-5-methanol]			100	100	
CCC(C)C(O)c1c(-c2c(F)cccc2F)c(C)nn1C (centres unmarked) [Compound 15]	100	74			
